The test system of one data set is Cryptosporidium parvum. In words: qRT-PCR assay of the growth of C. parvum in vitro in HCT-8 host cells (primary and secondary screening, EC50). It is filed as cell-based. As to conditions: Cryptosporidium parvum, HCT-8; for inhibition at 10 µM: primary screening at 10 uM, read-out: Inhibition (%). On the technique in general: Real-time PCR tracks product formation cycle by cycle.

Where [1] appears, read: primary screening at 10 uM, treated vs control.

Where a name gives a salt, the structure may show the parent alone. Read-outs that look alike come from different tables or passages of the source.

The inhibition is the relative decrease from the control value, in per cent. `COC(=O)C[C@H]1C(C)(C)[C@@H](OC(C)=O)[C@@H]2CC3C4CC(=O)O[C@@H](c5ccoc5)[C@]4(C)CCC3[C@@]1(C)C2=O` (stereo partly shown) [DIHYDROFISSINOLIDE]: in the data set with HCT-8 host cells (Hs18S) (human, 41 h, 10 μM), the “Hs18S ΔCT” value turned out to be 0.08. Besides, the inhibition at 10 µM in the data set on Cryptosporidium parvum is 4.5%. Besides, the cytotoxicity at 41 h, 10 µM in “in vitro” (human) was 5.3%.
`Nc1nc2c(c(=O)[nH]1)N=C(CNc1ccc(C(=O)N[C@@H](CCC(=O)O)C(=O)O)cc1)CN2` [DIHYDROFOLIC ACID]: in the data set on HCT-8 host cells (Hs18S) (human, 41 h, 10 μM), the “Hs18S ΔCT” value is -0.36. The inhibition at 10 µM in the data set with Cryptosporidium parvum was -11.9%. Further, the cytotoxicity at 41 h, 10 µM in the data set “in vitro” (human) is -28.7%.
For `CC(=O)O[C@@H]1C[C@H]2C(C)(C)C(=O)CC[C@]2(C)[C@H]2CC[C@@]3(C)[C@H](c4ccoc4)OC(=O)[C@H]4O[C@]43[C@@]21C` [DIHYDROGEDUNIN], the “Hs18S ΔCT” value in the data set with HCT-8 host cells (Hs18S) (human, 41 h, 10 μM) is -0.24. Further, the inhibition at 10 µM in the data set with Cryptosporidium parvum was 33.3%. In “in vitro” (human), the cytotoxicity at 41 h, 10 µM is -17.9%.
As to `CCCCCC1C(=O)CCC1CC(=O)OC` (stereo not shown) [DIHYDROJASMONIC ACID, METHYL ESTER], in the data set on HCT-8 host cells (Hs18S) (human, 41 h, 10 μM), the “Hs18S ΔCT” value was -0.06. Further, the inhibition at 10 µM in the data set on Cryptosporidium parvum was -8.77%. Further, the cytotoxicity at 41 h, 10 µM in the data set “in vitro” (human) was -4%.
For the compound `COc1c(CC(=O)c2cc3c(cc2O)OC(C)(C)C(O)C3)ccc2c1C=CC(C)(C)O2` (stereo not shown) [DIHYDROMUNDULETONE], the “Hs18S ΔCT” value in the data set on HCT-8 host cells (Hs18S) (human, 41 h, 10 μM) was -0.10. In the data set with Cryptosporidium parvum, the inhibition at 10 µM amounted to 4.35%. Besides, in “in vitro” (human), the cytotoxicity at 41 h, 10 µM is -7.4%.
For `COc1cc2c(cc1OC)[C@@H]1C(=O)c3ccc4c(c3O[C@@H]1CO2)CC(C(C)C)O4` (stereo partly shown) [DIHYDROROTENONE], the “Hs18S ΔCT” value in the data set on HCT-8 host cells (Hs18S) (setting [1]) came to 0.76. Moreover, the inhibition at 10 µM in the data set on Cryptosporidium parvum is 10.4%. The cytotoxicity at 10 µM in “in vitro” was 40.9%.
Take `CN[C@@H]1[C@H](O[C@H]2[C@H](O[C@H]3[C@H](O)[C@@H](O)[C@H](NC(=N)N)[C@@H](O)[C@@H]3NC(=N)N)O[C@@H](C)[C@]2(O)CO)O[C@@H](CO)[C@H](O)[C@H]1O` [DIHYDROSTREPTOMYCIN SULFATE]: the “Hs18S ΔCT” value in the data set on HCT-8 host cells (Hs18S) (setting [1]) was 0.05. Moreover, the inhibition at 10 µM in the data set with Cryptosporidium parvum is 18%. Also, the cytotoxicity at 41 h, 10 µM in “in vitro” (human) is 3.4%.
In the case of `C[C@@H]1CC[C@@]2(OC1)O[C@H]1C[C@H]3[C@@H]4CC=C5C[C@@H](O)CC[C@]5(C)[C@H]4CC[C@]3(C)[C@H]1[C@@H]2C` [DIOSGENIN], the “Hs18S ΔCT” value with HCT-8 host cells (Hs18S) (setting [1]) is 0.32. Further, the inhibition at 10 µM in the data set with Cryptosporidium parvum came to 14.7%. Besides, in the data set “in vitro”, the cytotoxicity at 10 µM came to 19.7%.
Take `COc1ccc(-c2cc(=O)c3c(O)cc(O[C@@H]4O[C@H](CO[C@@H]5O[C@@H](C)[C@H](O)[C@@H](O)[C@H]5O)[C@@H](O)[C@H](O)[C@H]4O)cc3o2)cc1O` [DIOSMIN]: the “Hs18S ΔCT” value in the data set on HCT-8 host cells (Hs18S) (human, 41 h, 10 μM) is on record as -0.65. The inhibition at 10 µM with Cryptosporidium parvum amounted to 13.8%. The cytotoxicity at 41 h, 10 µM in the data set “in vitro” (human) was -57.1%.
With `CC/C=C\C/C=C\C/C=C\C/C=C\C/C=C\C/C=C\CCC(=O)O` [DOCONEXENT], the “Hs18S ΔCT” value with HCT-8 host cells (Hs18S) (human, 41 h, 10 μM) is reported as -0.06. The inhibition at 10 µM in the data set on Cryptosporidium parvum was -24.5%. Also, the cytotoxicity at 41 h, 10 µM in the data set “in vitro” (human) was -4%.
In the same order, the values of `CCCCCCCCCCCCCCCCCCCCCCO` [DOCOSANOL] are -0.38, 24.4% and -30.5%.
The matching figures for `COc1ccc([C@H]2COc3c(ccc(O)c3OC)C2)c(OC)c1O` [DUARTIN (-)]: -0.20, -26.9% and -15.3%.
Consider `COc1ccc2c(c1OC)OC[C@@H](c1ccc(OC)c(OC)c1OC)C2` [DUARTIN, DIMETHYL ETHER], for which, in the data set with HCT-8 host cells (Hs18S) (human, 41 h, 10 μM), the “Hs18S ΔCT” value is -0.22. Besides, in the data set with Cryptosporidium parvum, the inhibition at 10 µM was -13.5%. Also, in “in vitro” (human), the cytotoxicity at 41 h, 10 µM was -16.4%.
As to `O=c1oc2c(O)c(O)cc3c(=O)oc4c(O)c(O)cc1c4c23` [ELLAGIC ACID], the “Hs18S ΔCT” value in the data set with HCT-8 host cells (Hs18S) (human, 41 h, 10 μM) was -0.05. Further, the inhibition at 10 µM in the data set on Cryptosporidium parvum was -14.6%. In the data set “in vitro” (human), the cytotoxicity at 41 h, 10 µM is -3.6%.
`CCCCCCCCCCCC1=C(O)C(=O)C=C(O)C1=O` [EMBELIN]: the “Hs18S ΔCT” value with HCT-8 host cells (Hs18S) (setting [1]) was determined as 0.13. The inhibition at 10 µM in the data set with Cryptosporidium parvum was -5.38%. Besides, the cytotoxicity at 10 µM in “in vitro” was 8.8%.
Turning to `CC[C@H]1CN2CCc3cc(OC)c(OC)cc3[C@@H]2C[C@@H]1C[C@H]1NCCc2cc(OC)c(OC)cc21` [EMETINE DIHYDROCHLORIDE], in the data set with HCT-8 host cells (Hs18S) (setting [1]), the “Hs18S ΔCT” value came out at 1.41. For the same compound, the inhibition at 10 µM in the data set on Cryptosporidium parvum was determined as 97.3%. Moreover, the inhibition at 3.3 µM in the data set on Cryptosporidium parvum (secondary screening at 3.3 uM, read-out: % Inhibition (3.3 uM)) was found to be 95%. In addition, in the data set “in vitro”, the cytotoxicity at 41 h, 10 µM is 62.4%.
For the compound `Cc1cc(O)c2c(c1)C(=O)c1cc(O)cc(O)c1C2=O` [EMODIN], the “Hs18S ΔCT” value with HCT-8 host cells (Hs18S) (human, 41 h, 10 μM) is -0.04. The inhibition at 10 µM with Cryptosporidium parvum was -18%. Moreover, the cytotoxicity at 41 h, 10 µM in “in vitro” (human) is -3%.
Regarding `CC1(C)[C@@H](O)CC[C@]2(C)[C@H]3C(=O)C=C4[C@@H]5C[C@@](C)(C(=O)O)CC[C@]5(C)CC[C@@]4(C)[C@]3(C)CC[C@@H]12` [ENOXOLONE], the “Hs18S ΔCT” value with HCT-8 host cells (Hs18S) (human, 41 h, 10 μM) was -0.07. The inhibition at 10 µM in the data set on Cryptosporidium parvum is -8.81%. Moreover, in the data set “in vitro” (human), the cytotoxicity at 41 h, 10 µM is -5.3%.
As for `Oc1ccc([C@H]2Oc3cc(O)cc(O)c3C[C@H]2O)cc1` [EPIAFZELECHIN (2R,3R)(-)], in the data set on HCT-8 host cells (Hs18S) (human, 41 h, 10 μM), the “Hs18S ΔCT” value was -0.14. Moreover, the inhibition at 10 µM in the data set with Cryptosporidium parvum is -2.1%. Besides, the cytotoxicity at 41 h, 10 µM in the data set “in vitro” (human) was -10.2%.

(Values after PMC6736568, “Discovery of Novel Anti-cryptosporidial Activities From Natural Products by in vitro High-Throughput Phenotypic Screening” (Frontiers in Microbiology, 2019).)
